Results from patent publication US20170253562A1, “Nampt Inhibitors” (AbbVie Inc., priority 2011, published 2017).

Biological target: recombinant, human, C-terminally-His tagged NAMPT (Homo sapiens, UniProt P43490)
Assay: Time-Resolved Fluorescence Resonance Energy Transfer (TR-FRET) binding assay of NAMPT
Conditions: 6.8 nM NAMPT, 200 nM probe (Oregon Green 488-conjugated APO866), 2-3 hours
Description: Time-Resolved Fluorescence Resonance Energy Transfer (TR-FRET) Binding Assay of NAMPT
Plates were read with Envision (Laser Lantha low volume protocol) after 2 to 3 hours.

Sequence of recombinant, human, C-terminally-His tagged NAMPT (P43490 whole entry): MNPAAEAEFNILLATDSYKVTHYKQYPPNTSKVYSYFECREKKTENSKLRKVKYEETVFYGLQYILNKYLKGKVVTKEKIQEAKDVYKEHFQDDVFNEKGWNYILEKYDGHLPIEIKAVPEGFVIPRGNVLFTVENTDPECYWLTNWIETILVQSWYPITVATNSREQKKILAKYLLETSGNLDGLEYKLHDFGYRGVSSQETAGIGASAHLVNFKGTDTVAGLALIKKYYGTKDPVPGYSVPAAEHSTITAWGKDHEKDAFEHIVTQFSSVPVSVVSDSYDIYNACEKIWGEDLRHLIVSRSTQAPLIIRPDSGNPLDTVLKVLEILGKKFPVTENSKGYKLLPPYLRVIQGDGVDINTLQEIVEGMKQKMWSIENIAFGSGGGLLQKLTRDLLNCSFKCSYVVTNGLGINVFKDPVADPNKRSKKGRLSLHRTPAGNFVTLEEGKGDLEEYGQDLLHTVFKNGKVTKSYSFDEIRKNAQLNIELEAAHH

SMILES | IC50
O=C(NCCN1CCNC1=O)c1ccc(NC(=O)N2Cc3ccccc3C2)cc1 [Example 3, N-(4-{[2-(2-oxoimidazolidin-1-yl)ethyl]carbamoyl}phenyl)-1,3-dihydro-2H-isoindole-2-carboxamide] | 32.6 nM
O=C(Nc1ccc(C(=O)N2CC3(CCOCC3)C2)nn1)N1Cc2ccccc2C1 [Example 18, N-[6-(7-oxa-2-azaspiro[3.5]non-2-ylcarbonyl)pyridazin-3-yl]-1,3-dihydro-2H-isoindole-2-carboxamide] | 388 nM
N#CC1COC2(CCN(C(=O)c3ccc(NC(=O)N4Cc5ccccc5C4)nn3)CC2)C1 (stereo not drawn) [Example 17, N-{6-[(3-cyano-1-oxa-8-azaspiro[4.5]dec-8-yl)carbonyl]pyridazin-3-yl}-1,3-dihydro-2H-isoindole-2-carboxamide] | 158 nM
O=C(Nc1ccc(C(=O)N2CCC3(CC2)COC3)nn1)N1Cc2ccccc2C1 [Example 8, N-[6-(2-oxa-7-azaspiro[3.5]non-7-ylcarbonyl)pyridazin-3-yl]-1,3-dihydro-2H-isoindole-2-carboxamide] | 92.2 nM
O=C(Nc1ccc(C(=O)N2CCC3(CCOC3)C2)nn1)N1Cc2ccccc2C1 (stereo not drawn) [Example 15, N-[6-(2-oxa-7-azaspiro[4.4]non-7-ylcarbonyl)pyridazin-3-yl]-1,3-dihydro-2H-isoindole-2-carboxamide] | 578 nM
O=C(Nc1ccc(C(=O)N2CCCC3(CCNC3)C2)nn1)N1Cc2ccccc2C1 (stereo not drawn) [Example 22, N-[6-(2,7-diazaspiro[4.5]dec-7-ylcarbonyl)pyridazin-3-yl]-1,3-dihydro-2H-isoindole-2-carboxamide] | 1270 nM
O=C(NC[C@H]1CC2CNCCN2C1)c1ccc(NC(=O)N2Cc3ccccc3C2)nn1 (stereo partly drawn) [Example 27, N-(6-{[(7R)-octahydropyrrolo[1,2-a]pyrazin-7-ylmethyl]carbamoyl}pyridazin-3-yl)-1,3-dihydro-2H-isoindole-2-carboxamide] | 602 nM
O=C(Nc1ccc(C(=O)N2CCC3(CCNC3)CC2)nn1)N1Cc2ccccc2C1 [Example 23, N-[6-(2,8-diazaspiro[4.5]dec-8-ylcarbonyl)pyridazin-3-yl]-1,3-dihydro-2H-isoindole-2-carboxamide] | 140 nM
O=C(NCC1COC2(CCNCC2)C1)c1ccc(NC(=O)N2Cc3ccccc3C2)cc1 (stereo not drawn) [Example 7, N-{4-[(1-oxa-8-azaspiro[4.5]dec-3-ylmethyl)carbamoyl]phenyl}-1,3-dihydro-2H-isoindole-2-carboxamide] | 7.39 nM
O=C(Nc1ccc(C(=O)N2CCC3OCCC3C2)nn1)N1Cc2ccccc2C1 (stereo not drawn) [Example 10, N-[6-(hexahydrofuro[3,2-c]pyridin-5(4H)-ylcarbonyl)pyridazin-3-yl]-1,3-dihydro-2H-isoindole-2-carboxamide] | 952 nM
O=C(Nc1ccc(C(=O)N2CC3(COC3)C2)nn1)N1Cc2ccccc2C1 [Example 13, N-[6-(2-oxa-6-azaspiro[3.3]hept-6-ylcarbonyl)pyridazin-3-yl]-1,3-dihydro-2H-isoindole-2-carboxamide] | 626 nM
O=C(Nc1ccc(C(=O)N2CCC3(CCNCC3)CC2)nn1)N1Cc2ccccc2C1 [Example 21, N-[6-(3,9-diazaspiro[5.5]undec-3-ylcarbonyl)pyridazin-3-yl]-1,3-dihydro-2H-isoindole-2-carboxamide] | 101 nM
O=C(Nc1ccc(C(=O)N2CC3(CCNCC3)C2)nn1)N1Cc2ccccc2C1 [Example 29, N-[6-(2,7-diazaspiro[3.5]non-2-ylcarbonyl)pyridazin-3-yl]-1,3-dihydro-2H-isoindole-2-carboxamide] | 454 nM
O=C(Nc1ccc(C(=O)N2CCC3(CNCCC3(F)F)C2)nn1)N1Cc2ccccc2C1 (stereo not drawn) [Example 16, N-{6-[(10,10-difluoro-2,7-diazaspiro[4.5]dec-2-yl)carbonyl]pyridazin-3-yl}-1,3-dihydro-2H-isoindole-2-carboxamide] | 116 nM
O=C(Nc1ccc(C(=O)N2CC3CCOC3C2)nn1)N1Cc2ccccc2C1 (stereo not drawn) [Example 11, N-[6-(hexahydro-5H-furo[2,3-c]pyrrol-5-ylcarbonyl)pyridazin-3-yl]-1,3-dihydro-2H-isoindole-2-carboxamide] | 270 nM
O=C(Nc1ccc(C(=O)N2CCC3(CCNCC3)C2)nn1)N1Cc2ccccc2C1 [Example 35, N-[6-(2,8-diazaspiro[4.5]dec-2-ylcarbonyl)pyridazin-3-yl]-1,3-dihydro-2H-isoindole-2-carboxamide] | 404 nM
O=C(NC1[C@H]2CNC[C@@H]12)c1ccc(NC(=O)N2Cc3ccccc3C2)nn1 (stereo partly drawn) [Example 26, N-{6-[(1R,5S)-3-azabicyclo[3.1.0]hex-6-ylcarbamoyl]pyridazin-3-yl}-1,3-dihydro-2H-isoindole-2-carboxamide] | 2890 nM
O=C(Nc1ccc(C(=O)N2CC3COCC3C2)nn1)N1Cc2ccccc2C1 (stereo not drawn) [Example 9, N-[6-(tetrahydro-1H-furo[3,4-c]pyrrol-5(3H)-ylcarbonyl)pyridazin-3-yl]-1,3-dihydro-2H-isoindole-2-carboxamide] | 442 nM
O=C(NCCN1CCCCCC1)c1ccc(NC(=O)N2Cc3ccccc3C2)cc1 [Example 1, N-(4-{[2-(azepan-1-yl)ethyl]carbamoyl}phenyl)-1,3-dihydro-2H-isoindole-2-carboxamide] | 55.6 nM
O=C(Nc1ccc(C(=O)N2CCC3(CCCO3)C2)nn1)N1Cc2ccccc2C1 (stereo not drawn) [Example 19, N-[6-(1-oxa-7-azaspiro[4.4]non-7-ylcarbonyl)pyridazin-3-yl]-1,3-dihydro-2H-isoindole-2-carboxamide] | 394 nM
O=C(Nc1ccc(C(=O)N2CC3(CCCNC3)C2)nn1)N1Cc2ccccc2C1 [Example 28, N-[6-(2,6-diazaspiro[3.5]non-2-ylcarbonyl)pyridazin-3-yl]-1,3-dihydro-2H-isoindole-2-carboxamide] | 3150 nM
O=C(Nc1ccc(C(=O)N2CCC3(CNCCC3F)C2)nn1)N1Cc2ccccc2C1 (stereo not drawn) [Example 20, N-{6-[(10-fluoro-2,7-diazaspiro[4.5]dec-2-yl)carbonyl]pyridazin-3-yl}-1,3-dihydro-2H-isoindole-2-carboxamide] | 406 nM
O=C(Nc1ccc(C(=O)N2CCC3(CNC3)C2)nn1)N1Cc2ccccc2C1 [Example 30, N-[6-(2,6-diazaspiro[3.4]oct-6-ylcarbonyl)pyridazin-3-yl]-1,3-dihydro-2H-isoindole-2-carboxamide] | 7190 nM
O=C(NCCC1CCCCO1)c1ccc(NC(=O)N2Cc3ccccc3C2)cc1 (stereo not drawn) [Example 4, N-(4-{[2-(tetrahydro-2H-pyran-2-yl)ethyl]carbamoyl}phenyl)-1,3-dihydro-2H-isoindole-2-carboxamide] | 4.08 nM
O=C(Nc1ccc(C(=O)N2CCC(C3CNC3)C2)nn1)N1Cc2ccccc2C1 (stereo not drawn) [Example 36, N-(6-{[3-(azetidin-3-yl)pyrrolidin-1-yl]carbonyl}pyridazin-3-yl)-1,3-dihydro-2H-isoindole-2-carboxamide] | 791 nM

Now from value to compound:

IC50 | SMILES
68.9 nM | O=C(NCC1CC2(CCNCC2)C1)c1ccc(NC(=O)N2Cc3ccccc3C2)nn1 [Example 48, N-{6-[(7-azaspiro[3.5]non-2-ylmethyl)carbamoyl]pyridazin-3-yl}-1,3-dihydro-2H-isoindole-2-carboxamide]
934 nM | O=C(NCc1nc2c([nH]1)CNCC2)c1ccc(NC(=O)N2Cc3ccccc3C2)nn1 [Example 37, N-{6-[(4,5,6,7-tetrahydro-3H-imidazo[4,5-c]pyridin-2-ylmethyl)carbamoyl]pyridazin-3-yl}-1,3-dihydro-2H-isoindole-2-carboxamide]
10000 nM | O=C(Nc1ccc(C(=O)N2CC3(CNC3)C2)nn1)N1Cc2ccccc2C1 [Example 44, N-[6-(2,6-diazaspiro[3.3]hept-2-ylcarbonyl)pyridazin-3-yl]-1,3-dihydro-2H-isoindole-2-carboxamide]
4700 nM | O=C(NCc1nnn2c1CNCCC2)c1ccc(NC(=O)N2Cc3ccccc3C2)nn1 [Example 49, N-{6-[(5,6,7,8-tetrahydro-4H-[1,2,3]triazolo[1,5-a][1,4]diazepin-3-ylmethyl)carbamoyl]pyridazin-3-yl}-1,3-dihydro-2H-isoindole-2-carboxamide]
261 nM | O=C(Nc1ccc(C(=O)N2CC3(CCCCO3)C2)nn1)N1Cc2ccccc2C1 [Example 46, N-[6-(5-oxa-2-azaspiro[3.5]non-2-ylcarbonyl)pyridazin-3-yl]-1,3-dihydro-2H-isoindole-2-carboxamide]
1970 nM | O=C(NCc1nnc2n1CCNC2)c1ccc(NC(=O)N2Cc3ccccc3C2)nn1 [Example 42, N-{6-[(5,6,7,8-tetrahydro[1,2,4]triazolo[4,3-a]pyrazin-3-ylmethyl)carbamoyl]pyridazin-3-yl}-1,3-dihydro-2H-isoindole-2-carboxamide]
2140 nM | O=C(NCC1CC2(CNC2)CO1)c1ccc(NC(=O)N2Cc3ccccc3C2)nn1 (stereo not drawn) [Example 45, N-{6-[(6-oxa-2-azaspiro[3.4]oct-7-ylmethyl)carbamoyl]pyridazin-3-yl}-1,3-dihydro-2H-isoindole-2-carboxamide]
344 nM | O=C(Nc1ccc(C(=O)N2CC3(CCCO3)C2)nn1)N1Cc2ccccc2C1 [Example 41, N-[6-(5-oxa-2-azaspiro[3.4]oct-2-ylcarbonyl)pyridazin-3-yl]-1,3-dihydro-2H-isoindole-2-carboxamide]
5850 nM | O=C(Nc1ccc(C(=O)N2CCC3(CCNCC3)C2C(F)(F)F)nn1)N1Cc2ccccc2C1 (stereo not drawn) [Example 47, N-(6-{[1-(trifluoromethyl)-2,8-diazaspiro[4.5]dec-2-yl]carbonyl}pyridazin-3-yl)-1,3-dihydro-2H-isoindole-2-carboxamide]
869 nM | O=C(NC1COC2(CCNCC2)C1)c1ccc(NC(=O)N2Cc3ccccc3C2)nn1 (stereo not drawn) [Example 38, N-[6-(1-oxa-8-azaspiro[4.5]dec-3-ylcarbamoyl)pyridazin-3-yl]-1,3-dihydro-2H-isoindole-2-carboxamide]
3260 nM | O=C(NCc1nnc2n1CCCNC2)c1ccc(NC(=O)N2Cc3ccccc3C2)nn1 [Example 39, N-{6-[(6,7,8,9-tetrahydro-5H-[1,2,4]triazolo[4,3-a][1,4]diazepin-3-ylmethyl)carbamoyl]pyridazin-3-yl}-1,3-dihydro-2H-isoindole-2-carboxamide]
